Measured values taken from ChEMBL document CHEMBL3832074, “DailyMed|setid=ad6a2b73-29d4-4ced-ba42-4c2ad1c5a1af | ENTACAPONE - entacapone tablet, film coated|Sun Pharma Global FZE”.

Legend:
Format in all cases: ADME, organism-based
[1] = (§1) Pharmacokinetic parameters for Enctacpone after single oral administartion of 200 and 800 mg Entacapone tablets to volunteers.; parameters: dose 200 mg, route oral; details: human, in vivo, 200 mg, dosed compound id 40, dosed compound name ENTACAPONE, regimen Single dose, tissue Plasma
Homo sapiens [2] = assay: as §1; parameters: dose 200 mg, route oral; details: in vivo, dosed compound id 40, dosed compound name ENTACAPONE, gender male and female, regimen Single dose, route oral, tissue Plasma
Homo sapiens [3] = assay: Pharmcokinetic parameters for Enctacpone following oral administration of Entacapone.; details: in vivo, dosed compound id 40, dosed compound name ENTACAPONE; for Excretion: po

Cmax [1]: 1200 ng/mL
Inhibition (Homo sapiens [2]; at 200 mg): 65%
Inhibition (Homo sapiens [2]; at 800 mg): 82%
CL (Homo sapiens [3]; route iv, tissue Plasma): 850 mL/min
Excretion (Homo sapiens [3]; tissue Feces): 90%
Excretion (Homo sapiens [3]; tissue Urine): 10%
SMILES: CCN(CC)C(=O)/C(C#N)=C/c1cc(O)c(O)c([N+](=O)[O-])c1 [ENTACAPONE]
